Results on three molecules are retold here after patent US11738021B2, “Composition and method for preventing, alleviating or treating cancer” (CKP Therapeutics, Inc., priority 2021, dated 2023).

In series [1] the test system is YUMC-C1 cell line xenograft. The series is classed as in vivo. The following applies: YUMC-C1 xenograft mice, oral, 13 times over 41 days, doses per Table 3.
Protocol: (§1) 15 days after injection of each of the cell lines, when the tumor volume reached about 100 to 200 mm^3, mice having a tumor with the above volume were randomly grouped (n=10/group), and then each drug was administered to the mice 13 times for a total of 41 days under the conditions shown in Table 3 below. […] Here, nothing was administered to the control group.
Series [2] deals with YUMC-H2 cell line xenograft. The following applies: YUMC-H2 xenograft mice, oral, 13 times over 41 days, doses per Table 3.
Protocol: as §1
In series [3] the test system is YUMC-P1 cell line xenograft. The following applies: YUMC-P1 xenograft mice, oral, 13 times over 41 days, doses per Table 3.
Protocol: as §1
The subject of a further series is YUMC-P1 cell line. Put plainly: MTT cell viability, anticancer drug-resistant YUMC-P1 cell line. It counts as cell-based, human. The following applies: drug alone at 200 μM, FIG. 2.
The subject of another series is YUMC-H2 cell line. As to the kind of experiment: MTT cell viability, anticancer drug-resistant YUMC-H2 cell line. The following applies: drug alone at 200 μM, FIG. 2. The series is classed as cell-based, human.
The test system of the next series is YUMC-C1 cell line. The following applies: drug alone at 200 μM, FIG. 2.

For `Cc1nc2c(C)cccc2c2c1CCN2c1ccccc1F` [Candidate 19], the “changes in mouse body weight (toxicity)” value in series [1] (FIG. 5), in series [2] (FIG. 5) and in series [3] (FIG. 5) was “no changes” throughout.

With `CNC(=O)c1cc(Oc2ccc(NC(=O)Nc3ccc(Cl)c(C(F)(F)F)c3)cc2)ccn1` [sorafenib], the cells survived entry in the series on YUMC-P1 cell line and in the series on YUMC-H2 cell line was “more than 80%” each time. Further, the tumor volume entry in series [2] (FIG. 3) and in series [3] (FIG. 3) was “no significant changes” in each case. The tumor weight entry in series [2] (FIG. 4) and in series [3] (FIG. 4) was “no significant changes” throughout.

Turning to `O=C1[O][Pt]2([NH][C@@H]3CCCC[C@H]3[NH]2)[O]C1=O` [oxaliplatin], the cells survived entry in the series on YUMC-C1 cell line was “more than 80%”. The tumor volume result in series [1] (vs control, FIG. 3) is recorded as “did not significantly decrease”. The tumor weight entry in series [1] (vs control, FIG. 4) is reported as “did not significantly decrease”.
